These results are taken from article PMC12596218 (Journal of Lipid Research, 2025).

For series [1], the system named is mAsbt. Description: mAsbt inhibition and TC transport by Hallén et al. (2002). The series is classed as cell-based, mouse. Conditions: from Ki values of ref 42.
In series [2] the target is mAsbt. Conditions: ref 42 Hallén et al. (2002); read-out: Ki mAsbt inhibition; cited from earlier work.
Series [3] addresses T1, ASBT (Homo sapiens, UniProt Q12908).
T1 construct: stably transfected with the full open reading frames of human NTCP, ASBT, SOAT, OATP1B1, OATP1B3, OATP2B1, and murine Asbt (mAsbt); expressed in transfected cells; host or cells: HEK293 (Flp-In), stably transfected, tetracycline-induced
T1 sequence (Q12908 1-348): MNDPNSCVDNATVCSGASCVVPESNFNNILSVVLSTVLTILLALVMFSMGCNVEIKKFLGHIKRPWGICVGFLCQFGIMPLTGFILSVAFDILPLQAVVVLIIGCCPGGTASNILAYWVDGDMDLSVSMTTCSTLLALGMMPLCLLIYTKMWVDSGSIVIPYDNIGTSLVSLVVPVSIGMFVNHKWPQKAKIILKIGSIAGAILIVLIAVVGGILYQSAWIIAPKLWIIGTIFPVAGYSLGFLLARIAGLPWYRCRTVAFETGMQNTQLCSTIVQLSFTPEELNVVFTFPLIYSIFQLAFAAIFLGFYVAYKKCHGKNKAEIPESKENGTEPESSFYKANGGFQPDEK
Briefly: [3H]TC transport and inhibition assay in ASBT-HEK293 cells. Conditions: inhibitor at 100 μM, 1 μM [3H]TC, 10 min. The class given is cell-based. From the text:
(§1) Human embryonic kidney HEK293 cells, stably transfected with the full open reading frames of human NTCP, ASBT, SOAT, OATP1B1, OATP1B3, OATP2B1, and murine Asbt (mAsbt) were used as reported ([18], [20], [21], [22], [23]). The NTCP, ASBT, and mAsbt constructs were C-terminally tagged with the FLAG epitope, and the SOAT construct was C-terminally tagged with green fluorescent protein. Non-transfected Flp-In HEK293 cells (Thermo Fisher Scientific) served as the control. All cell lines were maintained at 37°C, 5% CO2 and 95% humidity in DMEM/F-12 medium (Thermo Fisher Scientific) supplemented with 10% fetal calf serum (Sigma-Aldrich), 4 mM L-glutamine (PAA) and penicillin/streptomycin (PAA). Expression of the respective carrier protein was induced by tetracycline treatment at 1 μg/ml (Carl Roth GmbH + Co. KG).
(§2) Cells were seeded onto poly-L-lysine-coated 96-well plates, induced with 1 μg/ml tetracycline, and grown to confluence over 72 h at 37°C. Then, cells were washed with tempered (37°C) phosphate-buffered saline (PBS, containing 137.0 mM NaCl, 2.7 mM KCl, 1.5 mM KH2PO4, and 7.3 mM Na2HPO4, at pH 7.4) and preincubated with 80 μl sodium transport buffer (STB, containing 142.9 mM NaCl, 4.7 mM KCl, 1.2 mM MgSO4, 1.2 mM KH2PO4, 1.8 mM CaCl2, and 20.0 mM HEPES, at pH 7.4) for 5 min at 37°C. For inhibition studies, the medium was replaced by 80 μl STB containing the respective inhibitor or solvent alone and cells were further incubated for 5 min at 37°C. Transport experiments were started by adding 20 μl of a 5-fold concentrated substrate solution (solved in STB). For transport experiments under sodium-free conditions the same buffer composition was used as for STB, but sodium chloride was substituted with equimolar concentrations of choline chloride as previously reported ([20], [24]). Transport experiments were stopped by washing twice with ice-cold PBS and the plates were kept cool on ice until adding the lysis buffer [1% sodium dodecyl sulfate (SDS) and 1 N NaOH]. Then, the cell-associated radioactivity of the respective tritium-labeled substrate or ligand was quantified by liquid scintillation counting using MicroScint-20 scintillation cocktail (Revvity) in a Packard Microplate Scintillation Counter TopCount NXT (Packard Instrument Company). For IC50 transport inhibition measurements, the mean uptake values measured in non-carrier-expressing HEK293 control cells were defined as 0% uptake control and were subtracted from all other values. Values from cells without inhibitor and solvent alone were set to 100%. Finally, all net transport data were expressed as uptake or binding as % of control. All transport or inhibition graphs were generated with GraphPad Prism 6 (GraphPad). Determination of half maximal inhibitory concentrations (IC50) was done by nonlinear regression analysis using the equation log (inhibitor) versus response—variable slope settings. All data points of the IC50 curves represent means ± SD of quadruplicate determinations. For Km measurements, BS uptake in the absence of sodium was regarded as carrier-independent unspecific uptake and was subtracted from the transport rates in the presence of sodium to obtain carrier-specific uptake rates (indicated as dashed lines). From the specific uptake rates, Michaelis Menten Km values were calculated by non-linear regression analysis.

The target of series [4] is T2, SOAT (Homo sapiens, UniProt Q3KNW5).
T2 construct: stably transfected with the full open reading frames of human NTCP, ASBT, SOAT, OATP1B1, OATP1B3, OATP2B1, and murine Asbt (mAsbt); expressed in transfected cells; host or cells: HEK293 (Flp-In), stably transfected, tetracycline-induced
T2 sequence (Q3KNW5 1-377): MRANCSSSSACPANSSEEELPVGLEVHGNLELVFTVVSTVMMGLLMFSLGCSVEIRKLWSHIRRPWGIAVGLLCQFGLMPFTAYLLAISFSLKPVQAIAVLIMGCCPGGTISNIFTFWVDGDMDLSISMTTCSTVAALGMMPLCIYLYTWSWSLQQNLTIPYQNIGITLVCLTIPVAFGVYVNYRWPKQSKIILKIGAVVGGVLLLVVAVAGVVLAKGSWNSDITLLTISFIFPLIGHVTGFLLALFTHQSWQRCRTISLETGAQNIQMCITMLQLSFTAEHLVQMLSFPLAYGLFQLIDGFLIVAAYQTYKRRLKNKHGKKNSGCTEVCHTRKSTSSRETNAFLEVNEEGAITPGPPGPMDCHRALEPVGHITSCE
Description: [3H]DHEAS transport inhibition assay in SOAT-HEK293 cells. The class given is cell-based. Conditions: inhibitor at 100 μM, 1 μM [3H]DHEAS, 10 min.
From the text: as §1, §2

For series [5], the target named is T1, ASBT. Description: Transport inhibition and recovery assay (inhibitor washout) in ASBT-HEK293 cells. The class given is cell-based. To be noted: 100 μM inhibitor 5 min, 240 min recovery. On the procedure: HEK293 cells stably expressing ASBT were seeded onto poly-L-lysine-coated 96-well plates, induced with 1 μg/ml tetracycline, and grown to confluence over 72 h at 37°C. Non-carrier-expressing HEK293 cells were used as control. Then, cells were washed with tempered (37°C) PBS and equilibrated for 5 min with STB. […] After inhibitor preincubation, cells were washed with tempered (37°C) PBS and further incubated in inhibitor-free DMEM (Thermo Fisher Scientific) for 30, 60, 120, or 240 min at 37°C. […] Finally, cell associated radioactivity was determined using the MicroBeta2 liquid scintillation counter (Revvity). For each inhibitor, the mean values from noncarrier-expressing HEK293 cells were set to 0% and transport measurements in the absence of inhibitor (solvent control) were set to 100%.
In the second setup, the inhibitor was thoroughly washed out after the preincubation phase and cells were placed on inhibitor-free medium for different time intervals of 0–240 min (indicated by “recovery time” in Fig. 7A).

Series [6] has as its target T1, ASBT. Described as above. The series is classed as cell-based. Conditions: 100 μM inhibitor, 5 min preincubation, 1 μM [3H]TC.
Substrate in series [7]: C[C@H](CCC(=O)NCCS(=O)(=O)O)[C@H]1CC[C@H]2[C@@H]3[C@H](O)C[C@@H]4C[C@H](O)CC[C@]4(C)[C@H]3C[C@H](O)[C@]12C
Briefly: cells, lysate or membranes. To be noted: other: sodium-dependent specific uptake, initial linear phase, pH 7.4.

Where a chain is given by its changes, count along the chain named. In names and notes the source's numbering stands.

On to `CCCC[C@]1(CC)CS(=O)(=O)c2ccccc2[C@@H](c2ccccc2)N1` [2164U90], for which, in series [1], the “Difference in inhibitor potency mAsbt versus ASBT” value was determined as 150 fold. In addition, the Ki in series [2] is 0.068 µM.

Take `Cc1c(C)c2c(c(C)c1O)CCC(C)(COc1ccc(CC3SC(=O)NC3=O)cc1)O2` (stereo not drawn) [troglitazone]: in series [3], the “Inhibition of ASBT [3H]TC transport” value is reported as “significantly inhibited”. For the same molecule, the “Inhibition of SOAT [3H]DHEAS transport” value in series [4] is on record as “significantly inhibited”. Also, the “ASBT recovery after washout and 240 min in inhibitor-free medium” value in series [5] is listed as “only partial recovery”. In addition, the “ASBT inhibition with inhibitor present during uptake (inhibitor + [3H]TC)” value in series [6] is listed as “nearly complete ASBT inhibition”.

B1: ASBT (Homo sapiens) (protein)
chain: T1 sequence (Q12908 1-348)
On to B1, for which, in series [7] (37.0 °C), the Km is 46.0 µM.

B2: ASBT S294T/I295V (ASBT→mAsbt) (Homo sapiens; I295V/S294T) (protein)
chain: T1 sequence (Q12908 1-348) with S294T, I295V
Consider B2, for which the Michaelis constant (Km) in series [7] was found to be 25.9 µM.

B3: murine Asbt (mAsbt) (Mus musculus) (protein)
chain: MDNSSVCPPNATVCEGDSCVVPESNFNAILNTVMSTVLTILLAMVMFSMGCNVEVHKFLGHIKRPWGIFVGFLCQFGIMPLTGFILSVASGILPVQAVVVLIMGCCPGGTGSNILAYWIDGDMDLSVSMTTCSTLLALGMMPLCLFVYTKMWVDSGTIVIPYDSIGISLVALVIPVSFGMFVNHKWPQKAKIILKIGSITGVILIVLIAVIGGILYQSAWIIEPKLWIIGTIFPIAGYSLGFFLARLAGQPWYRCRTVALETGMQNTQLCSTIVQLSFSPEDLNLVFTFPLIYTVFQLVFAAVILGIYVTYRKCYGKNDAEFLEKTDNEMDSRPSFDETNKGFQPDEK
With B3, the Michaelis constant (Km) in series [7] (37.0 °C) was 272.3 µM.

B4: NTCP (Homo sapiens) (protein)
chain: MEAHNASAPFNFTLPPNFGKRPTDLALSVILVFMLFFIMLSLGCTMEFSKIKAHLWKPKGLAIALVAQYGIMPLTAFVLGKVFRLKNIEALAILVCGCSPGGNLSNVFSLAMKGDMNLSIVMTTCSTFCALGMMPLLLYIYSRGIYDGDLKDKVPYKGIVISLVLVLIPCTIGIVLKSKRPQYMRYVIKGGMIIILLCSVAVTVLSAINVGKSIMFAMTPLLIATSSLMPFIGFLLGYVLSALFCLNGRCRRTVSMETGCQNVQLCSTILNVAFPPEVIGPLFFFPLLYMIFQLGEGLLLIAIFWCYEKFKTPKDKTKMIYTAATTEETIPGALGNGTYKGEDCSPCTA
Consider B4, for which the Km in series [7] (37.0 °C) stood at 90.9 µM.

B5: NTCP M290S (NTCP→ASBT) (Homo sapiens; M290S) (protein)
chain: B4 chain with M290S
As for B5, the Km in series [7] stood at 15.9 µM.

B6: NTCP M290T/I291V (NTCP→mAsbt) (Homo sapiens; I291V/M290T) (protein)
chain: B4 chain with M290T, I291V
Regarding B6, the Km in series [7] worked out at 69.5 µM.

Broadly, the Ki is the equilibrium dissociation constant of an inhibitor or competing ligand from its target. The Km is the concentration of substrate that gives half-maximal velocity.
